The record followed here is patent US6358978B1, “Substituted benzimidazoles” (Aventis Pharma Deutschland GmbH, priority 1999, dated 2002).

Data set [1] has as its target T1, casein kinase II (CK II) (Homo sapiens, UniProt P68400).
T1 construct: purchased Upstate Biotechnology
Kind of data set: CK II kinase test (Upstate Biotechnology kit). The following applies: substance concentration of 100 μM; ATP 50 μM. In kind it is biochemical. The procedure: (§1) cAMP-dependent protein kinase (PKA), protein kinase C (PKC), and casein kinase II (CK II) were determined using the appropriate test kits of Upstate Biotechnology according to the procedure of the manufacturer at an ATP concentration of 50 μM. Differently, no phosphocellulose filter, but MultiScreen plates (Millipore; phosphocellulose MS-PH, cat. MAPHNOB10) with the corresponding aspiration system were used. The plates or membranes (IκB kinase) were then measured in a Wallac Microβeta scintillation counter. 100 μM of the test substance were employed in each case.
(§2) Each substance was tested in a duplicate determination. The mean value of the blank (without enzyme) is subtracted from the mean values (enzyme with and without substances) and the % inhibition is calculated. IC50 calculations were carried out using the software package GraFit 3.0.

Data set [2] has as its target T2, cAMP-dependent protein kinase (PKA) (Homo sapiens, UniProt P17612).
T2 construct: purchased Upstate Biotechnology
Kind of data set: PKA kinase test (Upstate Biotechnology kit). In kind it is biochemical. The following applies: substance concentration of 100 μM; ATP 50 μM. The method, then:
as §1, §2

For data set [3], the target named is T3, IκB kinase (Homo sapiens, UniProt O14920+O15111).
T3 construct: The kinase was purified from HeLa cell extracts; endogenous in cells; host or cells: HeLa cell extracts
T3 sequence (O14920 whole entry): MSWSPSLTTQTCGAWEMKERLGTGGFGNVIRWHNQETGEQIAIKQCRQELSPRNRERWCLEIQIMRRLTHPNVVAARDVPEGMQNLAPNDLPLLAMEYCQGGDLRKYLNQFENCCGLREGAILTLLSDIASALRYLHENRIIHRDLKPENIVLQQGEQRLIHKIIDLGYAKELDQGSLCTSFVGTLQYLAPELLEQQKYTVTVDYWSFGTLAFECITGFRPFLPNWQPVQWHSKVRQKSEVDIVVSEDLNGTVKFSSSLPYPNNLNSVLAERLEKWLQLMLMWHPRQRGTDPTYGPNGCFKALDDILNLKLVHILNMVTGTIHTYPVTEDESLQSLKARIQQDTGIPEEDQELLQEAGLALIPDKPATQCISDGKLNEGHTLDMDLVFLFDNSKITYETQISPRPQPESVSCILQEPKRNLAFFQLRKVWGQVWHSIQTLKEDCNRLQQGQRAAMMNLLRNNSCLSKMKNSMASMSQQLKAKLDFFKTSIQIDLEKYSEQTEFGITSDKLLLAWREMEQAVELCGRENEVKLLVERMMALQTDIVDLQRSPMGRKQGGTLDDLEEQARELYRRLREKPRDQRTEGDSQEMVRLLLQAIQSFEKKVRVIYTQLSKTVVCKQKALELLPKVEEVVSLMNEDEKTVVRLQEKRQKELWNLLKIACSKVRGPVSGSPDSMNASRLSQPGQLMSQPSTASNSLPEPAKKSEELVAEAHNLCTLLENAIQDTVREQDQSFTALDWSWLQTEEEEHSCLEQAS
T3 sequence (O15111 whole entry): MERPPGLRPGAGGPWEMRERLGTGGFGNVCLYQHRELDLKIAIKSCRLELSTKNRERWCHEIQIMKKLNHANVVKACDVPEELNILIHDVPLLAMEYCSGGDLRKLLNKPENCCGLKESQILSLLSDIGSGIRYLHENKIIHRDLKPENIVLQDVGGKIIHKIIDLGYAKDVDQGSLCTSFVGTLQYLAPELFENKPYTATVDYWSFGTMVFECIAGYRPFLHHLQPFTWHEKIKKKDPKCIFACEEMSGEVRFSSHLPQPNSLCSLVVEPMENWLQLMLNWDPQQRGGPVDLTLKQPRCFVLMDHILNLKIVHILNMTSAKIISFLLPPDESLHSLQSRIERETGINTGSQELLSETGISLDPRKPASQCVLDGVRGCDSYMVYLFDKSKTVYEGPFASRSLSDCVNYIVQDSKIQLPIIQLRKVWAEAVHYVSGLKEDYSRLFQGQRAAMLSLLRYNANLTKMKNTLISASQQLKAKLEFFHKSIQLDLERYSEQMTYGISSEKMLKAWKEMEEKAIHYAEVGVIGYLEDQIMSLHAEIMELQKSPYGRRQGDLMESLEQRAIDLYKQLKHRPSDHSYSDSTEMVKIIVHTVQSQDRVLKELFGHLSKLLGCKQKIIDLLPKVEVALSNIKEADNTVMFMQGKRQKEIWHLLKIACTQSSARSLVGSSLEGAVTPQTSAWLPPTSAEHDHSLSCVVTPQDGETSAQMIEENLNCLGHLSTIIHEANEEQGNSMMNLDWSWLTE
T3 sequence (Q9Y6K9 whole entry partner): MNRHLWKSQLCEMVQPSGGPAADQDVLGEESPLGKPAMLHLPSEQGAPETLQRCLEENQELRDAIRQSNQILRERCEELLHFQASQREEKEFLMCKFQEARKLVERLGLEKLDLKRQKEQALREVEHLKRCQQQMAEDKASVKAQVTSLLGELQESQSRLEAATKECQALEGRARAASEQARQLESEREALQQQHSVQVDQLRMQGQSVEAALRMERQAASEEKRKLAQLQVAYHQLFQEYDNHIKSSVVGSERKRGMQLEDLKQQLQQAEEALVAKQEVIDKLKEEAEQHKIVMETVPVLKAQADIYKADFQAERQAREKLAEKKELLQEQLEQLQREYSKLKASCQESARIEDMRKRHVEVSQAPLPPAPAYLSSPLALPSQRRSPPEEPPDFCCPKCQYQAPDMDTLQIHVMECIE
The experiment in a line: IκB kinase filter test. Type of data set: biochemical. The following applies: kinase purified from HeLa cell extracts; 50 μM ATP; substrate peptide 20 μM.

The test system of data set [4] is protein kinase C (PKC). The experiment in a line: PKC kinase test (Upstate Biotechnology kit). Type of data set: biochemical. The following applies: substance concentration of 100 μM; ATP 50 μM. The method, then:
as §1, §2

Counter-ions that a name gives are not always drawn.

T1 sequence (P68400 whole entry): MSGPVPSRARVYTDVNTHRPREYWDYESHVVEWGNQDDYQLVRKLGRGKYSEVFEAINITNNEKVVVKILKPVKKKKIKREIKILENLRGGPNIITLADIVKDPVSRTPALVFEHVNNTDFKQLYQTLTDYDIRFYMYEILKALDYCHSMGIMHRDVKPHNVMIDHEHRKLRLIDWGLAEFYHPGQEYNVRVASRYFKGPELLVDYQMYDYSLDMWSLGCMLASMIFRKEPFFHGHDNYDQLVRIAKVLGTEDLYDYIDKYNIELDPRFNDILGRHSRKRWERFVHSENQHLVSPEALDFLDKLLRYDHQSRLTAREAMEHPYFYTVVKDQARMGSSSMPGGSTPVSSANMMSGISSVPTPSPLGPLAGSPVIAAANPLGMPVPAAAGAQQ
T1 sequence (P67870 whole entry partner): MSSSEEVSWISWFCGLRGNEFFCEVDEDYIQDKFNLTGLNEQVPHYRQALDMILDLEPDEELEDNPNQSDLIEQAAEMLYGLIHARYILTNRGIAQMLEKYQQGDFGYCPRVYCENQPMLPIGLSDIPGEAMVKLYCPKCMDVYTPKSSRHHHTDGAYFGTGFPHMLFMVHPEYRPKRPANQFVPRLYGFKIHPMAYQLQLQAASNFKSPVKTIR

A word on the melting point: it is the temperature, or range, at which the solid turns liquid. Turning to `CCN(C[C@H](NC(=O)c1ccc2[nH]c(-c3ccncc3)nc2c1)C(=O)O)c1ccccc1` (as salt: trifluoroacetate) [Example 195, 3-Phenylaminoethyl-2-[(2-pyridin-4-yl-1H-benzimidazole-5-carbonyl)-amino]propionic acid trifluoroacetate], the melting point is ~ 258 °C (dec.).

The term inhibition denotes the relative decrease from the control value, in per cent. By IC50 is commonly meant the concentration that gives 50% inhibition. A lower IC50 goes with inhibition by little substance. As to `O=C(N[C@@H](Cc1ccc(F)cc1F)C(=O)O)c1ccc2nc(-c3ccncc3)[nH]c2c1` [Example 5], the inhibition at 100 µM in data set [1] stood at 19%; in data set [2] it was 0%. The compound further had an IC50 in data set [3] of 25 µM. Further, the PKC % inhibition in data set [4] is given as 16%.

`O=C(N[C@H](Cc1ccc(Cl)cc1)C(=O)O)c1ccc2nc(-c3ccncc3)[nH]c2c1` [Example 6]: the values for the inhibition at 100 µM in data set [1] and in data set [2] were 14% and 0%, respectively. This compound also displayed an IC50 in data set [3] of 72 µM. In data set [4], this compound showed a PKC % inhibition of 46%.

With `O=C(N[C@@H](Cc1ccc(F)cc1)C(=O)O)c1ccc2nc(-c3ccncc3)[nH]c2c1` [Example 7], the inhibition at 100 µM was 10% in data set [1] and 0% in data set [2]. In data set [3], half-maximal inhibition (IC50) required 22 µM. Besides, the PKC % inhibition in data set [4] was 15%.

With `NC(=O)[C@H](Cc1cccc(C(F)(F)F)c1)NC(=O)c1ccc2nc(-c3ccncc3)[nH]c2c1` [Example 8], the inhibition at 100 µM came out at 7% in data set [1] and 0% in data set [2]. Moreover, in data set [3], the IC50 was determined as 4 µM. The same compound gave a PKC % inhibition in data set [4] of 9%.

Regarding `NC(=O)[C@H](Cc1cccs1)NC(=O)c1ccc2nc(-c3ccncc3)[nH]c2c1` [Example 11], the inhibition at 100 µM in data set [1] and in data set [2] was 0% throughout. In addition, the IC50 in data set [3] was 7 µM. For the same compound, the PKC % inhibition in data set [4] stood at 16%.

With `NC(=O)[C@H](Cc1cccnc1)NC(=O)c1ccc2nc(-c3ccncc3)[nH]c2c1` [Example 12], the inhibition at 100 µM in data set [1] and in data set [2] was 0% each time. Further, the IC50 in data set [3] stood at 42 µM. In data set [4], this compound registered a PKC % inhibition of 16%.

For `NC(=O)[C@H](Cc1ccc(C(=O)O)cc1)NC(=O)c1ccc2nc(-c3ccncc3)[nH]c2c1` [Example 14], the inhibition at 100 µM in data set [1] and in data set [2] was 0% in each case. The compound further returned an IC50 in data set [3] of 7 µM. This compound registered a PKC % inhibition in data set [4] of 0%.

Turning to `N#Cc1ccc(C[C@H](NC(=O)c2ccc3nc(-c4ccncc4)[nH]c3c2)C(N)=O)cc1` [Example 16], the inhibition at 100 µM in data set [1] amounted to 4%; in data set [2] it was 0%. In addition, in data set [3], the IC50 worked out at 9 µM. Further, in data set [4], the PKC % inhibition came to 11%.

For the compound `NC(=O)[C@H](Cc1ccc2ccccc2n1)NC(=O)c1ccc2nc(-c3ccncc3)[nH]c2c1` [Example 19], the inhibition at 100 µM in data set [1] turned out to be 70%; in data set [2] it was 36%. Inhibition in data set [3] was half-maximal at 1 µM (IC50). In data set [4], this compound displayed a PKC % inhibition of 63%.

With `NC(=O)[C@H](Cc1cc(Br)c(O)c(Br)c1)NC(=O)c1ccc2nc(-c3ccncc3)[nH]c2c1` [Example 20], the inhibition at 100 µM was 60% in data set [1] and 26% in data set [2]. In addition, the IC50 in data set [3] is 34 µM. This compound also yielded a PKC % inhibition in data set [4] of 31%.

`NC(=O)[C@H](Cc1cccs1)NC(=O)c1cccc2nc(-c3ccncc3)[nH]c12` [Example 34] came in with an IC50 in data set [3] of 16 µM.

`NC(=O)[C@H](CC1CC1)NC(=O)c1cccc2nc(-c3ccncc3)[nH]c12` [Example 36] returned an IC50 in data set [3] of 36 µM.

Turning to `CSCC[C@H](NC(=O)c1ccc2[nH]c(-c3ccncc3)nc2c1)C(N)=O` [Example 107], the results for the inhibition at 100 µM in data set [1] and in data set [2] were 92% and 0%, respectively. In data set [3], the IC50 is 1 µM. For the same compound, the PKC % inhibition in data set [4] was found to be 13%.

In the case of `CC(C)(C)c1ccccc1SC[C@H](NC(=O)c1ccc2[nH]c(-c3ccncc3)nc2c1)C(=O)O` [Example 112], the inhibition at 100 µM in data set [1] was found to be 17%; in data set [2] it was 24%. Also, the IC50 in data set [3] was 25 µM. For the same compound, the PKC % inhibition in data set [4] worked out at 7%.

As for `Nc1nnc([C@H](CCc2ccccc2)NC(=O)c2ccc3[nH]c(-c4ccncc4)nc3c2)o1` [Example 179, 2-pyridin4-yl-1H-benzimidazole-5-carboxylic acid [1-(5-amino-[1,3,4]oxadiazol-2-yl)-3-phenylpropyl]amide], the melting point is 160 °C (dec.). The compound further gave an IC50 in data set [3] of 0.43 µM.

With `O=C(N[C@@H](CCc1ccccc1)c1nnco1)c1ccc2[nH]c(-c3ccncc3)nc2c1` [Example 180, 2-pyridin-4-yl-1H-benzimidazole-5-carboxylic acid (1-[1,3,4]oxadiazol-2-yl-3-phenylpropyl)amide], the melting point was 103 °C (dec.). The compound also registered an IC50 in data set [3] of 0.62 µM.

For `O=C(N[C@@H](CCc1ccccc1)c1nnc(NS(=O)(=O)c2ccccc2)o1)c1ccc2[nH]c(-c3ccncc3)nc2c1` [Example 191], the melting point was 220 °C (dec.). In addition, in data set [3], the midpoint of inhibition, the IC50, lay at 0.12 µM.

In the case of `CNC(=O)Nc1nnc([C@H](CCc2ccccc2)NC(=O)c2ccc3[nH]c(-c4ccncc4)nc3c2)o1` [Example 192, 2-pyridin-4-yl-1H-benzimidazole-5-carboxylic acid {1-[5-(3-methylureido)-[1,3,4]oxadiazol-2-yl]-3-phenylpropyl}amide], the half-maximal inhibitory concentration (IC50) in data set [3] came to 0.36 µM.
